Data on 1 compound can be found in patent US11261429B2, “Enriched and expanded human cord blood stem cells for treatment of hematological disorders” (ICAHN SCHOOL OF MEDICINE AT MOUNT SINAI, priority 2013, dated 2022).

Where “and” joins values, the source holds several entries; their conditions need not be identical. Equal values may be shown once.

Common to all, as to assay type: cell-based, human
Assay [1] concerns CB CD34+ cells. Kind of assay: Ex vivo expansion of CB CD34+ cells with HDACIs, phenotypic analysis by flow cytometry. To be noted: for fold expansion of CD34+ cells / fold expansion of CD34+CD90+ cells: cytokines. The source says:
CB collections were purchased from the Placental Blood Program at the New York Blood Center. CB-MNCs were isolated by Ficoll-Hypaque density centrifugation, and CD34+ cells were purified by immunotnagnetic selection as previously described (Chaurasia et al., “Chromatin-Modifying Agents Promote the Ex vivo Production of Functional Human Erythroid Progenitor Cells,” Blood 117:4632-4641 (2011), which is hereby incorporated by reference in its entirety). Highly purified (90%-98%) PCs (4.0-5.0×10^4) were cultured in SF Stemline II (Sigma-Aldrich) culture medium or IMDM (Lonza) containing 30% FBS (HyClone Laboratories) supplemented with 150 ng/ml SCF, 100 ng/ml fms-like tyrosine kinase receptor 3 (FLT3 ligand), 100 ng/ml thrombopoietin (TPO), and 50 ng/ml interleukin 3 (IL-3) (R&D Systems) and incubated in a humidified incubator maintained at 37° C. with 5% CO2. […] The cell populations studied and the various conditions under which they were cultured are referred to by specific terms listed in Table 1. Viable PC and cultured cells were enumerated using the trypan blue exclusion method. The fold expansion of CD34+ cells or subpopulations was calculated based on the number of CD34+ cells determined to be present in an individual CB collection and the number of CD34+ cells that would have been generated if all of the CD34+ cells within that primary CB collection were cultured using the various culture conditions described. PC or cultured cells expanded in the presence or absence of HDACIs were stained with an anti-human CD34 mAb or an isotype-matched control mAb and analyzed using a FACSCanto II (BD). CD34+ cells were re-isolated using a CD34+ cell isolation kit, as previously described, for further phenotypic and functional analyses. All mAbs were purchased from BD Biosciences and Cell Signaling Technology. Phenotypic analyses ([…], […], and […]7) of the ex vivo-expanded cells after 7 days in control cultures or cytokines plus an HDACI were performed as previously described (Chaurasia et al., “Chromatin-Modifying Agents Promote the Ex vivo Production of Functional Human Erythroid Progenitor Cells,” Blood 117:4632-4641 (2011), which is hereby incorporated by reference in its entirety).
In general terms: In flow cytometry, cells or beads pass a laser one at a time.

In assay [2] the test system is CB CD34+ cells. Kind of assay: Migration assay towards SDF1 (Transwell). The following applies: SDF1 100 ng/ml, after 16 and 48 hours, versus control. The method, then:
The migratory behavior of CB CD34+ cells was evaluated as previously described using 6.5 mm diameter, 5 μm pore Transwell plates (Costar) (Shivtiel et al., “CD45 Regulates Homing and Engraftment of Immature Normal and Leukemic Human Cells in Transplanted immunodeficient Mice,” Exp. Hematol. 39(12):1161-1170 (2011), which is hereby incorporated by reference in its entirety). The lower compartments of the Transwells were filled with StemLine II SF medium supplemented with 100 ng/ml of stromal-derived factor 1 (SDF1) (R&D Systems). The Transwell filters were coated with Matrigel for 30 minutes at 37° C. Re-isolated CD34+ cells (1×10^5) from the control and VPA-containing cultures were plated on the Matrigel-coated filters in 100 μl of Stemline II media. After 16 and 48 hours, cells that migrated to the lower compartment were enumerated, and the percentage of migration was calculated as follows: (number of cells migrated/total number of cells plated)×100.

Another assay deals with HDAC4. Description: HDAC protein levels in CB-MNCs, Western blot densitometry. To be noted: 24 hr, SCR 8 μM, C433 80 μM, VPA 1.25 mM. On the technique in general: Immunoblotting shows a protein as a band on a membrane.
Another assay concerns HDAC5. Described as above. To be noted: 24 hr, SCR 8 μM, C433 80 μM, VPA 1.25 mM.
A further assay deals with class I and II HDAC. Description: HDAC protein levels in CB-MNCs, Western blot, all HDACs examined. To be noted: after 2 hours of treatment.
Assay [3] relates to ALDH+CD34+ and ALDH-CD34+ cells. Description: BFU-E + CFU-Mix generated from sorted ALDH+CD34+ and ALDH-CD34+ cells. The source says: A far greater number of BFU-E+CFU-Mix were generated from ALDH+CD34+ cells generated in the presence of each of the HDACI in SF cultures as compared with SC cultures (ANOVA, p=0.001). By contrast, a greater number of BFU-E+CFU-Mix were generated from ALDH-CD34+ cells in SC cultures as compared to SF cultures. Mean±SE, ANOVA, p=0.01 (n=3).
Purified ALDH+CD34+ cells generated using SF cultures supplemented with VPA generated greater absolute numbers of BFU-E and CFU-Mix (8.4×10^7±6.7×10^7/CB collection) as compared to SC cultures (1.4×10^7±0.88×10^7; ANOVA, p=0.001) (FIG. 20A). By contrast, ALDH-CD34+ cells from SC cultures supplemented with VPA generated greater numbers of BFU-E and CFU-Mix (2.7×10^6±1.0×10^6) as compared to SF cultures (3.5×10^5±0.78×10^5) (ANOVA, p=0.01) (FIG. 20B).

Assay [4] relates to CB CD34+ cells. Description: Ex vivo expansion of CB CD34+ cells with HDACIs, phenotypic analysis by flow cytometry. The following applies: VPA alone (no cytokines), SF, 7 days after 16 h priming.
Setting [5] is: SF cultures containing VPA, 7 days.
Where [6] appears, read: SC cultures supplemented with VPA.
Setting [7] is: SF cultures supplemented with VPA.

From the text for HDAC4: (§1) Cellular proteins were separated by SDS-PAGE using Novex (Invitrogen) and transferred by iBlot (Invitrogen). The membranes were probed with mAbs against individual histone deacetylases (HDAC1, HDAC2, HDAC3, HDAC4, HDAC5, HDAC6, and β-actin; Cell Signaling Technology) and developed using a chemiluminescence system with HRP-conjugated secondary antibodies (Amersham Biosciences) according to the manufacturer's instructions.
From the text for HDAC5: as §1
From the text for class I and II HDAC: as §1

For the compound `CCCC(CCC)C(=O)O` [VPA, valproic acid], the “percentage of CD34+CD90+ cells” value with CB CD34+ cells [1] (7 days of culture with cytokines plus HDACI) is 75.2%±10.7% and 74.2±9.8%. Besides, in the assay on CB CD34+ cells [1] (SC conditions, 7 days), the “fold expansion of CD34+ cells” value was 78 fold and the “fold expansion of CD34+CD90+ cells” value is reported as 89 fold. Also, in the assay on CB CD34+ cells [1] (SF conditions, 7 days), the “fold expansion of CD34+ cells” value is 213 fold and the “fold expansion of CD34+CD90+ cells” value is 20,202 fold. Besides, in the assay on CB CD34+ cells [1] (setting [5]), the “CD34+CD90+ cells expressing CD45RA” value is on record as 1.9%±2.1% and the “CD34+CD90+ cells expressing CD49f” value is 47.0%±4.4%. In addition, in the assay on CB CD34+ cells [1] (VPA-treated cells after 7 days), the “B Cells (CD19)” value worked out at 0.5±0.1%, the “CD14+ cells” value amounted to 3.9±1.5%, the “CD41+ cells” value was 8.9±2.0% and the “Glycophorin+ cells” value is 17.0±5.4%. Moreover, the “T Cells (CD3)” value with CB CD34+ cells [1] (VPA-treated cells after 7 days) is 0.2±0.3%. The “migration of CD34+ cells in response to SDF1” value in the assay on CB CD34+ cells [2] is “significantly greater number of CD34+ cells treated with VPA migrated in response to SDF1”. Also, in the assay with HDAC4, the “HDAC4 expression relative to b-ACTIN (%)” value is given as 30.5 ± 9.3%. Moreover, in the assay with HDAC5, the “HDAC5 expression relative to b-ACTIN (%)” value was 21.4 ± 10.7%. Further, the “inhibition of HDAC expression” value in the assay on class I and II HDAC is reported as “did not inhibit HDAC expression”. Moreover, in assay [3] (setting [6]), the “absolute numbers of BFU-E and CFU-Mix from ALDH+CD34+ cells” value is on record as 1.4×10^7±0.88×10^7; the “numbers of BFU-E and CFU-Mix from ALDH-CD34+ cells” value is recorded as 2.7×10^6±1.0×10^6. For the same compound, in assay [3] (setting [7]), the “absolute numbers of BFU-E and CFU-Mix from ALDH+CD34+ cells” value was 8.4×10^7±6.7×10^7 /CB collection; the “numbers of BFU-E and CFU-Mix from ALDH-CD34+ cells” value was 3.5×10^5±0.78×10^5. In the assay with CB CD34+ cells [4], the “fold expansion of CD34+ cells per CB collection” value was 9.0 fold and the “fold expansion of CD34+CD90+ cells per CB collection” value amounted to 486 fold.
